Measurements as given in patent publication US20100055078A1, “METHODS OF MAKING A TRANSPLANTABLE BONE REPAIR SYSTEM USING MULTIPOTENT STEM CELLS” (The Government of the U.S.A, as represented by the …, priority 2008, published 2010).
Entries after “also recorded” stand apart in the source; their conditions may differ.

Experiments:
Format in all cases: cell-based
[1] = test system: Wounded Mineralized MC3T3-E1 Cells; test: Total protein content of wounded mineralized cultures (Bio-Rad DC protein assay); details: normalized to the control culture; 24 hours of treatment
Protocol: (§1) Cell culture: Cloned MC3T3-E1 osteoblasts (Kodama et al., J. Cell. Physiol. 112:89-95, 1992) were maintained in alpha MEM medium (Catalog No. MT15012CV Fisher Scientific, Pittsburgh, Pa.) containing 10% fetal bovine serum (FBS), 1% antibiotic solution and 1% glutamine solution and subcultured every 3 to 4 days. The cells were subcultured by incubating with trypsin for five minutes and resuspending at a concentration of 3×10^5 cells/ml. For experiments, cells were grown in the same medium as above, using multiwell plates (35 mm for microscopy and 22 mm for thymidine uptake studies). Each well contained a round 12 mm glass cover slip. Cultures for microscopy contained a 22 mm diameter coverslip with a 12 mm coverslip on top. After three days, the cells reached confluence and differentiation medium (DM) was added. DM was alpha MEM medium containing 10% FBS, 1% antibiotic solution and 1% glutamine solution, supplemented with ascorbic acid (50 μg/ml) and β-glycerol phosphate (10 mM) to induce mineralization. The cultures were then incubated for 9 more days. Microscopic examination was done at this time, using Von Kossa stain to confirm mineralization of the cultures. A critical defect in the mineralized cell layers was created by removing the 12 mm coverslips under sterile conditions and then incubating the cultures for an additional 24 hours in DM containing 4% FBS with IGF-1 (20 ng/ml), FGF-2 (0.2 ng/ml), PDGF (3 ng/ml), TGFβ (2 ng/ml) or PGE2 (2 μg/ml). At least triplicate independent biological samples in multiple experiments were carried out for data collection.
Protein assay: Protein concentration was determined by Bio-Rad DC™ protein assay (Bio-Rad, Hercules, Calif.) according to the manufacturer's protocol.

[2] = test system: MC3T3-E1 osteoblasts; test: [3H]-thymidine incorporation into DNA in wounded mineralized cell layers (in vitro fracture model); details: for increase of thymidine incorporation: wounded MC3T3-E1, 24 hour treatment, FGF-2 0.2 ng/ml, TGFβ 2 ng/ml, PGE2; for change in DNA synthesis (thymidine incorporation), in words: wounded MC3T3-E1, within twenty-four hours of treatment
Protocol: as §1
Tritiated thymidine incorporation into DNA: At the conclusion of the 24 hour incubation, the culture medium was removed and the cells were incubated for 15 minutes at 37° C. in 1 ml PBS containing tritiated thymidine (4 μCi/ml). Following this incubation, the PBS was removed and the cells washed 3 times with ice cold trichloroacetic acid (TCA) followed by ice cold ethanol and allowed to air dry. Then 1 ml of sarkosyl lysis buffer ([…] containing 1% sarkosyl) was added to each well; all the cells were solubilized after 30 minutes. Finally, after mixing the resulting solution with a pipette, radioactivity was counted in a scintillation counter and protein content was measured. The data was calculated and expressed as disintegrations per minute per microgram protein.

[3] = test system: MC3T3-E1 cell monolayers; test: Cell re-growth and migration into the coverslip defect, rhodamine phalloidin microscopy; details: for re-growth of cells into the defect, in words / relative migration: 24 hours after injury; for pattern of re-growth and cell morphology in the defect, in words: FGF-2 0.2 ng/ml, PGE2 10 μg/ml; for relative migration: from wound site to migrating edge
Protocol: as §1, with “([…]).” for “(2 ng/ml) or PGE2 (2 μg/ml).”
Microscopy: At the conclusion of the 24 hour incubation, the remaining 22 mm coverslip containing the regenerating area of the culture was removed. The specimen was rinsed five times in room temperature phosphate buffered saline (PBS) and fixed. Cells were visualized with the F-actin probe rhodamine phalloidin (Invitrogen, Carlsbad, Calif.). After rinsing in distilled water and air drying the samples, the coverslips were mounted on microscope slides using FLUOROMOUNT™ and the cells were examined and photographed. Photomicrographs were made on a Zeiss Axioskop epi-fluorescent microscope using a 40× objective. Migration was measured on the photomicrographs from the site of the wound to the migrating edge using a metric ruler (n=3) for each measurement.

[4] = test system: MC3T3-E1 cells; test: Cell growth on pre-treated nylon ribbons; details: up to 4 days, 0.1 mg/ml fibrinogen, HAHp, 50 ng/ml FGF-2
Protocol: Growth on Nylon Ribbons: 250,000 MC3T3-E1 osteoblast cells were seeded in 12-well plates containing 1 inch by 1 inch nylon ribbons pre-treated with 0.1 mg/ml fibrinogen or 1 mg/ml HA and 3 mg/ml heparin (HAHp) with or without 50 ng/ml FGF-2. Cells were visualized under 10× objective at 1 and 4 days after seeding.

[5] = test system: human mesenchymal stem cells (hMSC); test: Proliferation of mesenchymal stem cells, CyQuant relative cell number; details: of treatment
Protocol: Mesenchymal stem cells were isolated from bone marrow by adding 50 μl ROSETTESEP® human mesenchymal stem cell enrichment cocktail (StemCell Technologies, Vancouver, BC, Canada) to each ml of bone marrow. The mixture was incubated for 20 minutes at room temperature and then diluted 2× with PBS containing 2% FBS and 1 mM EDTA. The diluted sample was layered on FICOLL-PAQUE™ (StemCell Technologies, Vancouver, BC, Canada) and centrifuged at 300×g for 25 minutes. Enriched MSCs were removed from the FICOLL-PAQUE™:plasma interface, washed with PBS containing 2% FBS and 1 mM EDTA, and resuspended in αMEM culture medium.
Isolated MSCs were seeded to 96-well plates. […] 2,000 cells per well were seeded on 96-well plates. […] Relative cell number was obtained with a CYQUANT® Cell Proliferation kit (Invitrogen, Carlsbad, Calif.) according to the manufacturer's protocol.

[6] = test system: human MSCs; test: Cell migration and growth in the center of a pre-treated collagen sponge; design: key to Cell Growth in Sponge: One positive (+) indicates low cell number visible in the field; two positives (++) indicates a thin layer of cells visible in the field; three positives (+++) indicates many cells visible in the field
[7] = test system: MC3T3-E1 cells; test: qRT-PCR gene expression in mineralizing cells treated with growth factor
Protocol: Cell Culture: MC3T3-E1 cells were grown and mineralized essentially as described in Example 1.
RNA Isolation: RNA was isolated using the RNeasy™ Mini kit (Qiagen, Valencia, Calif.) or TriReagent™ (Sigma-Aldrich, St. Louis, Mo.) according to the manufacturer's protocol.
Reverse Transcription: 1.5 μg of RNA was added to 30 μl reverse transcriptase (RT) reaction buffer containing 5 mM MgCl2, 10 mM Tris-HCl (pH 8.3), 50 mM KCl, 1 mM dNTPs, 2.5 μM oligo d(T) primer, 2.5 U/μl of MuLV RT, and 1 U/μl of RNase inhibitor. The RT reaction was incubated at room temperature for 10 min, 42° C. for 30 min, inactivated at 99° C. for 5 min, and cooled at 5° C. for 5 min.
Real-time Quantitative RT-PCR Reaction (qRT-PCR): 2 μl of cDNA from the RT reaction was added to 20 μl real-time quantitative polymerase chain reaction (qRT-PCR) mixture containing 10 μl of 2×SYBR® Green PCR Master Mix (Applied Biosystems, Foster City, Calif.) and 12 pmol oligonucleotide primers. PCR was carried out in a Bio-Rad MY iQ® Single-Color Real-Time PCR Detection System (Bio-Rad, Hercules, Calif.) at 50° C. for 2 min, 95° C. for 10 min to activate the Taq polymerase, followed by 50 amplification cycles, consisting of denaturation at 95° C. for 1 min 40 sec, annealing at 63° C. for 1 min 10 sec, and elongation at 72° C. for 1 min 40 sec. Fluorescence was measured and used for quantitative purposes. At the end of the amplification period, melting curve analysis was performed to confirm the specificity of the amplicon. RNA samples were normalized to a cyclophilin (CPHI) internal standard. Relative quantification of gene expression was calculated by using the 2^−(Ct gene T−Ct CPHI T)−(Ct gene 0 hr−Ct CPHI 0 hr) equation, where “Ct gene T” represents the calculated threshold cycle (Ct) of a time point of each sample other than 0 hr, or each treatment other than control. Relative gene abundance is calculated using 2^(Ct gene T−Ct CPHI T), resulting numbers were then multiplied by 10,000 for better graphical presentation. Primer sequences were previously described (Hughes-Fulford and Gilbertson, FASEB J. 13:S121-127, 1999; Hughes-Fulford et al., Gravit. Space Biol. Bull. 11:51-60, 1998; Tjandrawinata and Hughes-Fulford, Adv. Exp. Med. Biol. 407:163-170, 1997; Hughes-Fulford, Adv. Exp. Med. Biol. 400A:269-278, 1997; Hughes-Fulford and Lewis, Exp. Cell Res. 224:103-109, 1996). All data derived using qRT-PCR was from multiple experiments with triplicate independent biological samples.

[8] = test system: MC3T3-E1 cells; test: Cell proliferation on ECM protein coated wells with FGF-2, CyQuant; details: wells containing ECM proteins and FGF-2
Protocol: Cell Proliferation: Five-hundred MC3T3-E1 osteoblast like cells were plated on a 96 well plate with ECM proteins coated on the bottom of the well. Sextuplet independent samples with and without FGF-2 were each plated in wells and 500 MC3T3-E1 cells were then adhered and grown for 3 days. Cell number was measured using CyQuant assay kit. Medium was changed daily

[9] = 24 hours, FGF-2 5 ng/ml or BMP-2 100 ng/ml, corrected to cyclophilin

## CCCCC[C@H](O)/C=C/[C@H]1[C@H](O)CC(=O)[C@@H]1C/C=C\CCCC(=O)O [PGE2, prostaglandin E2, reference compound]
[1]
  Total Protein/Culture: 1.51
[2]
  increase of thymidine incorporation: > 3.3 fold
  change in DNA synthesis (thymidine incorporation), in words: significantly enhanced
[3]
  re-growth of cells into the defect, in words: showed cellular proliferation at the interface of the mature cultures and the defect
  pattern of re-growth and cell morphology in the defect, in words: more linear pattern and formed multiple elongated pseudopodia
  relative migration: 3.2±0.2 mm

## fibrinogen
[4]
  cell growth on nylon ribbon, in words: Little or no cell proliferation

## fibroblast growth factor-2 [FGF-2]
[1]
  Total Protein/Culture: 1.49
[2]
  increase of thymidine incorporation: more than 4.5 fold
  change in DNA synthesis (thymidine incorporation), in words: significantly enhanced
[5]
  optimum dose for proliferation: 2.5 to 5 ng/mL
[3]
  re-growth of cells into the defect, in words: showed cellular proliferation at the interface of the mature cultures and the defect
  pattern of re-growth and cell morphology in the defect, in words: rapid coverage of the defect void
  relative migration: 5.4±0.5 mm
[6]; center of collagen sponge, after four days, 100 ng/ml FGF-2, 0.1 mg/ml fibrinogen, HAHp 0.3% w/w heparin with 1% hyaluronic acid
  Cell Growth in Sponge: +
[6]; pre-treated collagen sponge
  cells observed in the collagen sponge, in words: Some cells were observed
[7]; [9]
  Relative abundance of gene expression: ALP: 13.39
  Relative abundance of gene expression: BMP-2: **0.06
  Relative abundance of gene expression: Collagen Type I: **678.21
  Relative abundance of gene expression: Fibronectin: *28432.19
  Relative abundance of gene expression: IGF-1: **50.65
  Relative abundance of gene expression: MMP3: **4.04
  Relative abundance of gene expression: Noggin: *1.61
  Relative abundance of gene expression: OC: **1.38
  Relative abundance of gene expression: RUNX2: **674.95
  Relative abundance of gene expression: TGFβ: **245.40
  Relative abundance of gene expression: VEGFA: **5132.66
[7]; over 24 hours
  expression of genes associated with mineralization (col1a1, fn, bmp-2, oc, runx2, noggin), in words: significantly decreased; also recorded: significantly suppressed
  expression of igf-1, in words: significantly decreased
[7]; over a 24 hour period
  expression of egr-1, fgf-2, cox-2, tgfβ, mmp3, vegfA and vegfr1, in words: dramatically induced
[4]
  cell growth on nylon ribbon, in words: Little or no cell proliferation

## fibronectin
[8]
  MC3T3-E1 cell proliferation, in words: significantly increased

## insulin-like growth factor-1 [IGF-1]
[1]
  Total Protein/Culture: 1.19
[2]
  change in DNA synthesis (thymidine incorporation), in words: small and unremarkable changes
[3]
  re-growth of cells into the defect, in words: little and unremarkable re-growth

## platelet-derived growth factor [PDGF]
[1]
  Total Protein/Culture: 1.38
[2]
  change in DNA synthesis (thymidine incorporation), in words: small and unremarkable changes
[3]
  re-growth of cells into the defect, in words: little and unremarkable re-growth

## transforming growth factor β [TGFβ]
[1]
  Total Protein/Culture: 1.55
[2]
  increase of thymidine incorporation: more than 2 fold
  change in DNA synthesis (thymidine incorporation), in words: significantly enhanced
[3]
  re-growth of cells into the defect, in words: showed cellular proliferation at the interface of the mature cultures and the defect
  relative migration: 1.8±0.4 mm
